Reference: ChEMBL document CHEMBL1138457, “Design and synthesis of an orally bioavailable and selective peptide epoxyketone proteasome inhibitor (PR-047)” (J Med Chem, 2009)
Values after ≈ are worked out from the molar mass of the structure shown.

Tested on: not listed separately
Assay: Cytotoxicity against human MESSA cells assessed as cell viability after 72 hrs by CellTiter-Glo luminescent assay
Format: functional, cell-based
Conditions: MES-SA
`COC[C@H](NC(=O)c1cc(OC)no1)C(=O)N[C@@H](COC)C(=O)N[C@@H](Cc1ccccc1)C(=O)[C@@]1(C)CO1` gave an IC50 of 12 nM. `COC[C@H](NC(=O)c1ccon1)C(=O)N[C@@H](COC)C(=O)N[C@@H](CC(C)C)C(=O)[C@@]1(C)CO1` gave an IC50 of 37 nM. In the case of `Cc1cc(C(=O)N[C@@H](CC(C)C)C(=O)N[C@@H](Cc2ccccc2)C(=O)N[C@@H](CC(C)C)C(=O)[C@@]2(C)CO2)no1`, the IC50 is reported as 28 nM. In the case of `COC[C@H](NC(=O)c1cc(C)on1)C(=O)N[C@@H](CC1CCCCC1)C(=O)N[C@@H](CC(C)C)C(=O)[C@@]1(C)CO1`, the IC50 is reported as 210 nM. For `CC[C@H](NC(=O)[C@H](COC)NC(=O)c1cc(C)on1)C(=O)N[C@@H](CC(C)C)C(=O)[C@@]1(C)CO1`, the IC50 was 92 nM. In the case of `COC[C@H](NC(=O)c1cc(C)on1)C(=O)N[C@@H](Cc1cscn1)C(=O)N[C@@H](CC(C)C)C(=O)[C@@]1(C)CO1`, the IC50 is reported as 17 nM.

Tested on: Mus musculus
Assay: Inhibition of chymotrypsin-like activity of 20S proteasome in BALB/c mouse adrenal gland at 20 mg/kg, po after 1 hr
Format: functional
Design: scale not given: the % may be the effect or the level left
Conditions: not given
`COC[C@H](NC(=O)c1cc(C)on1)C(=O)N[C@@H](CC1CCCCC1)C(=O)N[C@@H](CC(C)C)C(=O)[C@@]1(C)CO1` showed an Activity of 56%. `CC[C@H](NC(=O)[C@H](COC)NC(=O)c1cc(C)on1)C(=O)N[C@@H](CC(C)C)C(=O)[C@@]1(C)CO1` gave an Activity of 90%. For `COC[C@H](NC(=O)c1cc(C)on1)C(=O)N[C@@H](Cc1cscn1)C(=O)N[C@@H](CC(C)C)C(=O)[C@@]1(C)CO1`, the Activity was 39%.

Species: Homo sapiens
Assay: Ratio of Kinact to Ki for chymotrypsin-like activity of human 26S proteasome by spectrophotometry
Design: unit not given here
Conditions: not given
For `Cc1cc(C(=O)N[C@@H](CC(C)C)C(=O)N[C@@H](Cc2ccccc2)C(=O)N[C@@H](CC(C)C)C(=O)[C@@]2(C)CO2)no1`, the Ratio was 50900.

Tested on: not listed separately
Assay: Metabolic stability in human liver microsomes assessed as extraction ratio at 1 uM
Format: ADME, Microsome
Conditions: not given
Compound `COC[C@H](NC(=O)c1cc(OC)no1)C(=O)N[C@@H](COC)C(=O)N[C@@H](Cc1ccccc1)C(=O)[C@@]1(C)CO1` has a hepatic extraction ratio at 1 µM of 0.64 dimensionless ratio. With `COC[C@H](NC(=O)c1ccon1)C(=O)N[C@@H](COC)C(=O)N[C@@H](CC(C)C)C(=O)[C@@]1(C)CO1` the hepatic extraction ratio at 1 µM was 0.16 dimensionless ratio. Work on `COC[C@H](NC(=O)c1cc(C)on1)C(=O)N[C@@H](CC1CCCCC1)C(=O)N[C@@H](CC(C)C)C(=O)[C@@]1(C)CO1` yielded a hepatic extraction ratio at 1 µM of 0.94 dimensionless ratio. Work on `COC[C@H](NC(=O)c1cc(C)on1)C(=O)N[C@@H](Cc1cscn1)C(=O)N[C@@H](CC(C)C)C(=O)[C@@]1(C)CO1` yielded a hepatic extraction ratio at 1 µM of 0.85 dimensionless ratio.

Tested on: not listed separately
Assay: Metabolic stability in mouse liver microsomes assessed as extraction ratio at 1 uM
Format: ADME, Microsome
Conditions: not given
`COC[C@H](NC(=O)c1cc(OC)no1)C(=O)N[C@@H](COC)C(=O)N[C@@H](Cc1ccccc1)C(=O)[C@@]1(C)CO1` showed a hepatic extraction ratio at 1 µM of 0.54 dimensionless ratio. `COC[C@H](NC(=O)c1ccon1)C(=O)N[C@@H](COC)C(=O)N[C@@H](CC(C)C)C(=O)[C@@]1(C)CO1` gave a hepatic extraction ratio at 1 µM of 0.39 dimensionless ratio. For `COC[C@H](NC(=O)c1cc(C)on1)C(=O)N[C@@H](CC1CCCCC1)C(=O)N[C@@H](CC(C)C)C(=O)[C@@]1(C)CO1`, the hepatic extraction ratio at 1 µM was 0.96 dimensionless ratio. In the case of `CC[C@H](NC(=O)[C@H](COC)NC(=O)c1cc(C)on1)C(=O)N[C@@H](CC(C)C)C(=O)[C@@]1(C)CO1`, the hepatic extraction ratio at 1 µM is reported as 0.47 dimensionless ratio. With `COC[C@H](NC(=O)c1cc(C)on1)C(=O)N[C@@H](Cc1cscn1)C(=O)N[C@@H](CC(C)C)C(=O)[C@@]1(C)CO1` the hepatic extraction ratio at 1 µM was 0.86 dimensionless ratio.

Tested on: not listed separately
Assay: Inhibition of chymotrypsin-like activity of human 20S proteasome beta 5 subunit by proteasome active site ELISA
Conditions: not given
Compound `COC[C@H](NC(=O)c1cc(OC)no1)C(=O)N[C@@H](COC)C(=O)N[C@@H](Cc1ccccc1)C(=O)[C@@]1(C)CO1` has an IC50 of 14 nM. Work on `COC[C@H](NC(=O)c1ccon1)C(=O)N[C@@H](COC)C(=O)N[C@@H](CC(C)C)C(=O)[C@@]1(C)CO1` yielded an IC50 of 48 nM.

Tested on: not listed separately
Assay: Inhibition of chymotrypsin-like activity of 20S proteasome in human MOLT4 cells after 1 hr by […]
Format: cell-based
Conditions: MOLT-4, 1 h
`COC[C@H](NC(=O)c1cc(OC)no1)C(=O)N[C@@H](COC)C(=O)N[C@@H](Cc1ccccc1)C(=O)[C@@]1(C)CO1` gave an IC50 of 10 nM. Compound `COC[C@H](NC(=O)c1ccon1)C(=O)N[C@@H](COC)C(=O)N[C@@H](CC(C)C)C(=O)[C@@]1(C)CO1` has an IC50 of 168 nM. For `Cc1cc(C(=O)N[C@@H](CC(C)C)C(=O)N[C@@H](Cc2ccccc2)C(=O)N[C@@H](CC(C)C)C(=O)[C@@]2(C)CO2)no1`, the IC50 was 17 nM. In the case of `COC[C@H](NC(=O)c1cc(C)on1)C(=O)N[C@@H](CC1CCCCC1)C(=O)N[C@@H](CC(C)C)C(=O)[C@@]1(C)CO1`, the IC50 is reported as 78 nM. Work on `CC[C@H](NC(=O)[C@H](COC)NC(=O)c1cc(C)on1)C(=O)N[C@@H](CC(C)C)C(=O)[C@@]1(C)CO1` yielded an IC50 of 248 nM. With `COC[C@H](NC(=O)c1cc(C)on1)C(=O)N[C@@H](Cc1cscn1)C(=O)N[C@@H](CC(C)C)C(=O)[C@@]1(C)CO1` the IC50 was 25 nM.

Tested on: Mus musculus
Assay: Inhibition of chymotrypsin-like activity of 20S proteasome in BALB/c mouse adrenal gland at 10 mg/kg, po after 1 hr
Format: functional
Design: scale not given: the % may be the effect or the level left
Conditions: not given
`COC[C@H](NC(=O)c1cc(OC)no1)C(=O)N[C@@H](COC)C(=O)N[C@@H](Cc1ccccc1)C(=O)[C@@]1(C)CO1` gave an Activity of 19%. `COC[C@H](NC(=O)c1ccon1)C(=O)N[C@@H](COC)C(=O)N[C@@H](CC(C)C)C(=O)[C@@]1(C)CO1` showed an Activity of 14%.

Tested on: not listed separately
Assay: Solubility in ethanol-PS80 citrate buffer at pH 3.5 by HPLC analysis
Format: physicochemical
Conditions: not given
Work on `Cc1cc(C(=O)N[C@@H](CC(C)C)C(=O)N[C@@H](Cc2ccccc2)C(=O)N[C@@H](CC(C)C)C(=O)[C@@]2(C)CO2)no1` yielded a solubility of 60 µg/mL (≈ 111 µM).

Tested on: not listed separately
Assay: Cytotoxicity against multidrug resistance transporter expressing doxorubicin resistant human MESSA cells assessed as cell viability after 72 hrs by CellTiter-Glo luminescent assay
Format: functional, cell-based
Conditions: MES-SA
`COC[C@H](NC(=O)c1cc(OC)no1)C(=O)N[C@@H](COC)C(=O)N[C@@H](Cc1ccccc1)C(=O)[C@@]1(C)CO1` gave an IC50 of 269 nM. `COC[C@H](NC(=O)c1ccon1)C(=O)N[C@@H](COC)C(=O)N[C@@H](CC(C)C)C(=O)[C@@]1(C)CO1` showed an IC50 of 260 nM. Compound `Cc1cc(C(=O)N[C@@H](CC(C)C)C(=O)N[C@@H](Cc2ccccc2)C(=O)N[C@@H](CC(C)C)C(=O)[C@@]2(C)CO2)no1` has an IC50 of 47 nM. `COC[C@H](NC(=O)c1cc(C)on1)C(=O)N[C@@H](CC1CCCCC1)C(=O)N[C@@H](CC(C)C)C(=O)[C@@]1(C)CO1` gave an IC50 of 353 nM. Compound `CC[C@H](NC(=O)[C@H](COC)NC(=O)c1cc(C)on1)C(=O)N[C@@H](CC(C)C)C(=O)[C@@]1(C)CO1` has an IC50 of 468 nM. Work on `COC[C@H](NC(=O)c1cc(C)on1)C(=O)N[C@@H](Cc1cscn1)C(=O)N[C@@H](CC(C)C)C(=O)[C@@]1(C)CO1` yielded an IC50 of 367 nM.

Tested on: not listed separately
Assay: Chemical stability in simulated intestinal fluid assessed as compound remaining at 4 uM after 15 mins
Format: physicochemical
Conditions: read-out: Stability
Compound `COC[C@H](NC(=O)c1cc(OC)no1)C(=O)N[C@@H](COC)C(=O)N[C@@H](Cc1ccccc1)C(=O)[C@@]1(C)CO1` has a remaining at 0.25 h, 4 µM of 100%. `COC[C@H](NC(=O)c1ccon1)C(=O)N[C@@H](COC)C(=O)N[C@@H](CC(C)C)C(=O)[C@@]1(C)CO1` gave a remaining at 0.25 h, 4 µM of 90%. In the case of `Cc1cc(C(=O)N[C@@H](CC(C)C)C(=O)N[C@@H](Cc2ccccc2)C(=O)N[C@@H](CC(C)C)C(=O)[C@@]2(C)CO2)no1`, the remaining at 0.25 h, 4 µM is reported as 60%. Work on `COC[C@H](NC(=O)c1cc(C)on1)C(=O)N[C@@H](CC1CCCCC1)C(=O)N[C@@H](CC(C)C)C(=O)[C@@]1(C)CO1` yielded a remaining at 0.25 h, 4 µM of 75%. For `CC[C@H](NC(=O)[C@H](COC)NC(=O)c1cc(C)on1)C(=O)N[C@@H](CC(C)C)C(=O)[C@@]1(C)CO1`, the remaining at 0.25 h, 4 µM was 100%. Compound `COC[C@H](NC(=O)c1cc(C)on1)C(=O)N[C@@H](Cc1cscn1)C(=O)N[C@@H](CC(C)C)C(=O)[C@@]1(C)CO1` has a remaining at 0.25 h, 4 µM of 100%.

Target: T1, Proteasome subunit beta type-8 (Homo sapiens, UniProt P28062)
T1 sequence (P28062 whole entry): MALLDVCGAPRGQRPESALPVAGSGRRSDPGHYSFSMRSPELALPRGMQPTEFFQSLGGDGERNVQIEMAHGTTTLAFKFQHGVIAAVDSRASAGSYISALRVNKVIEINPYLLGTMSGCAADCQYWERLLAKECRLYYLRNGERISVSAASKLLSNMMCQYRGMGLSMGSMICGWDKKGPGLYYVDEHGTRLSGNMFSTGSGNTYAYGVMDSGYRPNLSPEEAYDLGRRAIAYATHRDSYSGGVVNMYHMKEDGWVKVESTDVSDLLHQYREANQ
Conditions: not given
With `COC[C@H](NC(=O)c1cc(OC)no1)C(=O)N[C@@H](COC)C(=O)N[C@@H](Cc1ccccc1)C(=O)[C@@]1(C)CO1` the IC50 was 36 nM. For `COC[C@H](NC(=O)c1ccon1)C(=O)N[C@@H](COC)C(=O)N[C@@H](CC(C)C)C(=O)[C@@]1(C)CO1`, the IC50 was 607 nM.

Tested on: not listed separately
Assay: Inhibition of chymotrypsin-like activity of human 20S proteasome by spectrofluorimetry
Conditions: not given
For `COC[C@H](NC(=O)c1cc(OC)no1)C(=O)N[C@@H](COC)C(=O)N[C@@H](Cc1ccccc1)C(=O)[C@@]1(C)CO1`, the IC50 was 50 nM. With `COC[C@H](NC(=O)c1ccon1)C(=O)N[C@@H](COC)C(=O)N[C@@H](CC(C)C)C(=O)[C@@]1(C)CO1` the IC50 was 43 nM. `Cc1cc(C(=O)N[C@@H](CC(C)C)C(=O)N[C@@H](Cc2ccccc2)C(=O)N[C@@H](CC(C)C)C(=O)[C@@]2(C)CO2)no1` gave an IC50 of 1.8 nM. In the case of `COC[C@H](NC(=O)c1cc(C)on1)C(=O)N[C@@H](CC1CCCCC1)C(=O)N[C@@H](CC(C)C)C(=O)[C@@]1(C)CO1`, the IC50 is reported as 13 nM. In the case of `CC[C@H](NC(=O)[C@H](COC)NC(=O)c1cc(C)on1)C(=O)N[C@@H](CC(C)C)C(=O)[C@@]1(C)CO1`, the IC50 is reported as 54 nM. Compound `COC[C@H](NC(=O)c1cc(C)on1)C(=O)N[C@@H](Cc1cscn1)C(=O)N[C@@H](CC(C)C)C(=O)[C@@]1(C)CO1` has an IC50 of 16 nM.
